Holding throughout (type): biochemical
Experiment [1] deals with T1, human proteinase 3 (Homo sapiens, UniProt P24158).
T1 construct: purchased Elastin Products Company, USA
T1 sequence (P24158 28-248): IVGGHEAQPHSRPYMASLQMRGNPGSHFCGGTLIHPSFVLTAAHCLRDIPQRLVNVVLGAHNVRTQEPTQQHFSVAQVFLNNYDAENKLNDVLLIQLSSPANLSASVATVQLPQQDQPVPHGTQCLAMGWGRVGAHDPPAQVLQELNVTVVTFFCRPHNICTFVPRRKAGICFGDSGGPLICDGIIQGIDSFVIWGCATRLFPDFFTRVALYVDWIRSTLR
In words: Inhibition of human proteinase 3 (substrate Boc-Ala-Ala-Nva-SBzl). As to conditions: for hNE/hPr3 selectivity: ratio of hPr3 IC50 to hNE IC50; for pIC50: substrate Boc-Ala-Ala-Nva-SBzl 1 mM, enzyme 10 nM, 37° C., pH7.4, read-out: Human proteinase 3 (hPr3) IC50. A digest of the protocol:
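Enzyme at 10 nM incubated at 37°C with 1 mM thiobenzyl ester substrate, 250 μM 4,4′-dithiodipyridine and serial peptide dilutions (0.5% DMSO) in Tris pH 7.4, 150 mM NaCl, 0.01% Tween20. Absorbance at 340 nm followed over 30 min; IC50 from 4-parameter Hill fit.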

For experiment [2], the target named is T2, human neutrophil elastase (Homo sapiens, UniProt P08246).
T2 construct: purchased Serva Electrophoresis, Germany
T2 sequence (P08246 30-267): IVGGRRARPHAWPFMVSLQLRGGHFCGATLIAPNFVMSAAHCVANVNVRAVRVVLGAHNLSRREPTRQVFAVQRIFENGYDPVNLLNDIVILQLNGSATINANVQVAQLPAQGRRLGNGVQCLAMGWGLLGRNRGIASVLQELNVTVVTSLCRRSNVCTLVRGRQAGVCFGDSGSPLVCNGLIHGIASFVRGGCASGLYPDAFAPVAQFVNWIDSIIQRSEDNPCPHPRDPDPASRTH
In words: Inhibition of human neutrophil elastase (hydrolysis of MeOSuc-AAPV-pNA). Particulars: substrate MeOSuc-AAPV-pNA 0.3 mM, enzyme 10 nM, 37° C., pH 8; read-out: Human neutrophil elastase (hNE) IC50. In a few lines:
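MeOSuc-AAPV-pNA (0.3 mM) hydrolysis by 10 nM enzyme at 37° C with serially diluted peptides (1% DMSO) in 50 mM Tris pH 8, 300 mM NaCl, 0.01% Tween20. pNA release read at 405 nm over 30 minutes; IC50 from 4-parameter Hill fit.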

Experiment [3] deals with T3, porcine pancreatic elastase (Sus scrofa, UniProt P00772).
T3 construct: purchased Sigma, USA
The experiment is described as follows: Inhibition of porcine pancreatic elastase (hydrolysis of MeOSuc-AAA-pNA). As to conditions: for hNE/PPE selectivity: ratio of PPE IC50 to hNE IC50; for pIC50: substrate MeOSuc-AAA-pNA 1 mM, enzyme 15 nM, 37° C., pH8, read-out: Porcine pancreatic elastase (PPE) IC50. A digest of the protocol: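 Elastase (15 nM) incubated at 37 °C with 1 mM MeOSuc-AAA-pNA and serially diluted peptides (0.5% DMSO) in 50 mM Tris pH 8, 100 mM NaCl, 0.01% Tween20. pNA release read at 405 nm over 30 min; IC50 from 4-parameter Hill fit.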

SMILES strings stand for the structures. pIC50: −log10 of the molar value. *1 amine or outer side, *2 acyl side, *3 side chain or, on linkers, in order; H or OH if unused. Where a SMILES comes first, the peptide text is derived from it. [ ]: non-standard residue; d: D form. The star is where a group is joined. X2 = C[C@@H](O)[C@@H](CCC(=O)[*:2])N[*:1]; Oic = O=C(O)[C@@H]1C[C@@H]2CCCC[C@@H]2N1; Gly(octyl) = CCCCCCCC[C@H](N)C(=O)O; hTyr = N[C@@H](CCc1ccc(O)cc1)C(=O)O; Octanoyl = CCCCCCCC(=O)*; Dab = NCC[C@H](N)C(=O)O; Nlys = NCCCCNCC(=O)O

Ten molecules from US10273267B2, “Beta-hairpin peptidomimetics as selective elastase inhibitors” (POLYPHOR AG, priority 2013, dated 2019) can be followed below.

T3 sequence (P00772 27-266): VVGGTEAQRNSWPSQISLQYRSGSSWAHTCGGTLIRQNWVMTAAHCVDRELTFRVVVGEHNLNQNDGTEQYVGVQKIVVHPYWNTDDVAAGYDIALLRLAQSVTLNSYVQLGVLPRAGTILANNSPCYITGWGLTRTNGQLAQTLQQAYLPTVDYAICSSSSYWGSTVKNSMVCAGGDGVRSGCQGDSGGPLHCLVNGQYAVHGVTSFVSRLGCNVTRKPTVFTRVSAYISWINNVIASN

Usually pIC50 stands for the negative decadic logarithm of the IC50, by convention in mol/L. Turning to `CCCCCCCC[C@@H]1NC(=O)[C@H](C(C)C)NC(=O)[C@@H](Cc2ccc(O)cc2)NC(=O)[C@H]([C@@H](C)O)NC(=O)[C@H](CCCCN)NC(=O)[C@H](CCC(N)=O)NC(=O)[C@@H]2CCCN2C(=O)[C@@H]2CCCN2C(=O)[C@H]([C@@H](C)CC)NC(=O)[C@H](CO)NC(=O)[C@H](C)NC(=O)[C@H]([C@@H](C)O)NC(=O)[C@H](CCC(=O)O)NC1=O` [Example 23, Cyclo(-OctGly-Glu-Thr-Ala-Ser-Ile-Pro-Pro-Gln-Lys-Thr-^DTyr-Val-)] (cyclo([Gly(octyl)]ETASIPPQKT[dY]V)), the hNE/hPr3 selectivity in experiment [1] is listed as 1717. The pIC50 was 4.99 in experiment [1], 8.22 in experiment [2] and 4.99 in experiment [3]. The hNE/PPE selectivity in experiment [3] came out at 1717.
Take `CCCCCCCC[C@@H]1NC(=O)[C@H](CCC(=O)O)NC(=O)[C@@H](CCCCN)NC(=O)[C@H]([C@@H](C)O)NC(=O)[C@H](CCCCN)NC(=O)[C@H](CCC(N)=O)NC(=O)[C@@H]2CCCN2C(=O)[C@@H]2CCCN2C(=O)[C@H]([C@@H](C)CC)NC(=O)[C@H](CO)NC(=O)[C@H](C)NC(=O)[C@H]([C@@H](C)O)NC(=O)[C@H](CCC(=O)O)NC1=O` [Example 29, Cyclo(-OctGly-Glu-Thr-Ala-Ser-Ile-Pro-Pro-Gln-Lys-Thr-^DLys-Glu-)] (cyclo([Gly(octyl)]ETASIPPQKT[dK]E)): in experiment [1], the hNE/hPr3 selectivity is reported as 5305 and the pIC50 was 4.20. In addition, the negative logarithm of the IC50 (pIC50) in experiment [2] was 7.93. Moreover, in experiment [3], the hNE/PPE selectivity is recorded as 1085 and the pIC50 was 4.89.
Regarding `CCCCCCCC[C@@H]1NC(=O)[C@H](C)NC(=O)[C@@H](C)NC(=O)[C@H]([C@@H](C)O)NC(=O)[C@H](CCCCN)NC(=O)[C@H](CCC(N)=O)NC(=O)[C@@H]2CCCN2C(=O)[C@@H]2CCCN2C(=O)[C@H]([C@@H](C)CC)NC(=O)[C@H](CO)NC(=O)[C@H](C)NC(=O)[C@H]([C@@H](C)O)NC(=O)[C@H](CCC(=O)O)NC1=O` [Example 20, Cyclo(-OctGly-Glu-Thr-Ala-Ser-Ile-Pro-Pro-GI n-Lys-Thr-^DAla-Ala-)] (cyclo([Gly(octyl)]ETASIPPQKT[dA]A)), in experiment [1], the hNE/hPr3 selectivity is listed as 669 and the pIC50 was 5.05. Further, the pIC50 in experiment [2] was 7.88. Besides, in experiment [3], the hNE/PPE selectivity is reported as 2128 and the pIC50 is 4.55.
In the same order, the values of `CCCCCCCC[C@@H]1NC(=O)[C@@H]2CCCN2C(=O)[C@H]2CCCN2C(=O)CC[C@H]([C@@H](C)O)NC(=O)[C@H](CCCCN)NC(=O)[C@H](CCC(N)=O)NC(=O)[C@@H]2CCCN2C(=O)[C@@H]2CCCN2C(=O)[C@H]([C@@H](C)CC)NC(=O)[C@H](CO)NC(=O)[C@H](C)NC(=O)[C@H]([C@@H](C)O)NC(=O)[C@H](CCC(=O)O)NC1=O` [Example 11, Cyclo(-OctGly-Glu-Thr-Ala-Ser-Ile-Pro-Pro-Gln-Lys-[H-γ^4-DiHThr-OH]-^DPro-Pro-)] (cyclo([Gly(octyl)]ETASIPPQK[X2][dP]P)) are 1835, 4.68, 7.94, 4217 and 4.31.
The like results for `CCCCCCCC[C@@H]1NC(=O)[C@H](CCCCN)NC(=O)[C@@H](Cc2ccc(O)cc2)NC(=O)[C@H]([C@@H](C)O)NC(=O)[C@H](CCCCN)NC(=O)[C@H](CCC(N)=O)NC(=O)[C@@H]2CCCN2C(=O)[C@@H]2CCCN2C(=O)[C@H]([C@@H](C)CC)NC(=O)[C@H](CO)NC(=O)[C@H](C)NC(=O)[C@H]([C@@H](C)O)NC(=O)[C@H](CCC(=O)O)NC1=O` [Example 25, Cyclo(-OctGly-Glu-Thr-Ala-Ser-Ile-Pro-Pro-GI n-Lys-Thr-^DTyr-Lys-)] (cyclo([Gly(octyl)]ETASIPPQKT[dY]K)) were, in that order, 6531, 4.38, 8.19, 7031 and 4.35.
The like results for `CCCCCCCC(=O)NCC[C@@H]1NC(=O)[C@@H]2CCCN2C(=O)[C@H]2CCCN2C(=O)[C@H]([C@@H](C)O)NC(=O)[C@H](CCCCN)NC(=O)[C@H](CCC(N)=O)NC(=O)[C@@H]2CCCN2C(=O)[C@@H]2CCCN2C(=O)[C@H]([C@@H](C)CC)NC(=O)[C@H](CO)NC(=O)[C@H](C)NC(=O)[C@H]([C@@H](C)O)NC(=O)[C@H](CCC(=O)O)NC1=O` [Example 15, Cyclo(-Dab(Octanoyl)-Glu-Thr-Ala-Ser-Ile-Pro-Pro-Gln-Lys-Thr-^DPro-Pro-)] (cyclo([Dab](Octanoyl)ETASIPPQKT[dP]P)) were, in that order, 2366, 4.34, 7.72, 4859 and 4.03.
As to `CC[C@H](C)[C@@H]1NC(=O)[C@H](CO)NC(=O)[C@H](C)NC(=O)[C@H]([C@@H](C)O)NC(=O)[C@H](CCc2ccc(O)cc2)NC(=O)[C@H](CCCNC(=N)N)NC(=O)[C@H](CCC(=O)O)NC(=O)[C@H]2CCCN2C(=O)[C@H]([C@@H](C)O)NC(=O)[C@H](CCCCN)NC(=O)[C@H](CCC(N)=O)NC(=O)[C@@H]2C[C@@H]3CCCC[C@@H]3N2C(=O)[C@@H]2CCCN2C1=O` [Example 43, Cyclo(-Arg-hTyr-Thr-Ala-Ser-Ile-Pro-Oic-Gln-Lys-Thr-^DPro-Glu-)] (cyclo(R[hTyr]TASIP[Oic]QKT[dP]E)), in experiment [1], the hNE/hPr3 selectivity is on record as >237037 and the pIC50 was < 4.00. The pIC50 in experiment [2] is 8.57. Also, in experiment [3], the hNE/PPE selectivity is recorded as >237037 and the pIC50 is < 4.00.
Take `CC[C@H](C)[C@@H]1NC(=O)[C@H](CO)NC(=O)[C@H](C)NC(=O)[C@H]([C@@H](C)O)NC(=O)[C@H](CCC(=O)O)NC(=O)[C@H](CCCNC(=N)N)NC(=O)[C@@H]2CCCN2C(=O)[C@H]2CCCN2C(=O)[C@H]([C@@H](C)O)NC(=O)[C@H](CCCCN)NC(=O)[C@H](CCC(N)=O)NC(=O)[C@@H]2C[C@@H]3CCCC[C@@H]3N2C(=O)[C@@H]2CCCN2C1=O` [Example 16, Cyclo(-Arg-Glu-Thr-Ala-Ser-Ile-Pro-Oic-Gln-Lys-Thr-^DPro-Pro-)] (cyclo(RETASIP[Oic]QKT[dP]P)): in experiment [1], the hNE/hPr3 selectivity is on record as >6667 and the negative logarithm of the IC50 (pIC50) was < 4.00. In experiment [2], the pIC50 is 7.82. In experiment [3], the hNE/PPE selectivity was >6667 and the pIC50 was < 4.00.
Consider `CCCCCCCC[C@@H]1NC(=O)[C@@H]2CCCN2C(=O)[C@H]2CCCN2C(=O)[C@H]([C@@H](C)O)NC(=O)[C@H](CCCCN)NC(=O)[C@H](CCC(N)=O)NC(=O)[C@@H]2CCCN2C(=O)CN(CCCCN)C(=O)[C@H]([C@@H](C)CC)NC(=O)[C@H](CO)NC(=O)[C@H](C)NC(=O)[C@H]([C@@H](C)O)NC(=O)[C@H](CCC(=O)O)NC1=O` [Example 33, Cyclo(-OctGly-Glu-Thr-Ala-Ser-Ile-Nlys-Pro-Gln-Lys-Thr-^DPro-Pro-)] (cyclo([Gly(octyl)]ETASI[Nlys]PQKT[dP]P)), for which, in experiment [1], the hNE/hPr3 selectivity was 871 and the pIC50 is 5.21. Further, the pIC50 in experiment [2] was 8.15. Also, in experiment [3], the hNE/PPE selectivity amounted to 1186 and the pIC50 was 5.08.
In the same order, the values of `CC[C@H](C)[C@@H]1NC(=O)[C@H](CO)NC(=O)[C@H](C)NC(=O)[C@H]([C@@H](C)O)NC(=O)[C@H](CCc2ccc(O)cc2)NC(=O)[C@H](CCCNC(=N)N)NC(=O)[C@H](CCC(=O)O)NC(=O)[C@H]2CCCN2C(=O)[C@H]([C@@H](C)O)NC(=O)[C@H](CCCCN)NC(=O)[C@H](CCC(N)=O)NC(=O)[C@@H]2CCCN2C(=O)[C@@H]2CCCN2C1=O` [Example 49] (cyclo(R[hTyr]TASIPPQKT[dP]E)) are 627, 5.02, 7.82, 2490 and 4.42.
